{
  "source": "patent US20030161893A1",
  "about": "“PTPase inhibitors and methods of using the same” (priority 2001, published 2003)",
  "key": {"HEY cells": {"tested_on": "HEY cells", "assay": "Cell growth assay (MTT), HEY ovarian cancer cells", "type": "cell-based, human", "conditions": "100 μg/ml, day 6", "method": "(§1) NIH3T3 (Yi, et al., Blood 85, 87 (1995)), WM9 (Forsberg, et al., Proc. Nat. Acad Sci. USA 90, 393 (1993)), DU145 (Mickey, et al., Cancer Res. 37, 4049 (1977)), LoVo (Drewinko, et al., Cancer Res. 36, 467 (1976)), HEY (Buick, et al., Cancer Res. 45, 3668 (1985)), U251 (Yoshida, et al., Cancer 50, 410 (1982)), A549 (Giard, et al., J. Natl. Cancer Inst. 51, 1417 (1973)) and SK-N-SH (Helson, et al., Cancer Res. 35, 2594 (1975)) cell lines have been described and were cultured in RPMI 1640 supplemented with 10% fetal calf serum (FCS). For measurement of sodium stibogluconate effects on cell growth in vitro, cells were cultured in the absence (−) or presence (+) of various amounts of sodium stibogluconate for 6 days with viable cells quantified by MTT assays (Mosmann, J. Imunol. Methods 65, 55 (1983)). Percentages of growth inhibition by sodium stibogluconate were calculated (+/−×%)."}, "WiT49-N1 cells": {"tested_on": "WiT49-N1 cells", "assay": "Cell proliferation assay (MTT), WiT49-N1 Wilms tumor cells", "type": "cell-based, human", "conditions": "day 6", "method": "(§2) For cell proliferation assays, cells were grown in 10% FCS culture medium containing various amounts of IFNs and/or sodium stibogluconate in 96 well plates and cultured at 37° C. for 3 or 6 days as indicated. The numbers of viable cells in proliferation assays were determined by MTT assays as described in Phatak et al., J. Immunol. 167, 3391 (2001)."}, "MKP1": {"target": "T1, MKP1 (Homo sapiens, UniProt P28562)", "T1 construct": "a pGEX construct containing the coding region of MKP1 cDNA derived by RT-PCR; made in house; host or cells: DH5a bacteria (E. coli)", "T1 sequence (P28562 1-367)": "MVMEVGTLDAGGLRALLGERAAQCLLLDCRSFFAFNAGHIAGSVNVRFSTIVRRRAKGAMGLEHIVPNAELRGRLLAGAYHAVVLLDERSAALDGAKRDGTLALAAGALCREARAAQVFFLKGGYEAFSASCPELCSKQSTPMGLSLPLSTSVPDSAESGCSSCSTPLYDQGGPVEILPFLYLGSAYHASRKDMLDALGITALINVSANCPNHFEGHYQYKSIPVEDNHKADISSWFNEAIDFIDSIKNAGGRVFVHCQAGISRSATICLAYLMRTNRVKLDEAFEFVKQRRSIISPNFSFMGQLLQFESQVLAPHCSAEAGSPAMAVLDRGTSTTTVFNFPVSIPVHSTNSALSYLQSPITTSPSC", "assay": "In vitro PTPase assay, GST/MKP1 fusion protein", "type": "biochemical"}, "A549 cells": {"tested_on": "A549 cells", "assay": "Cell growth assay (MTT), A549 lung cancer cells", "type": "cell-based, human", "conditions": "100 μg/ml, day 6", "method": "as §1"}, "Baf3 cells": {"tested_on": "Baf3 cells", "assay": "Baf3 cell proliferation assay", "type": "cell-based, murine", "method": "The murine hematopoietic cell line Baf3 was maintained in RPMI 1640 medium supplemented with 10% fetal calf serum (FCS) and murine IL-3 (20 units/ml) as described previously in Damen et al., J. Biol. Chem. 270, 23402 (1995). Human myeloid cell line TF-1 was maintained in RPMI 1640 supplemented with 10% FCS and 40 ng/ml of recombinant human GM-CSF as described previously in Thomassen et al., Clin. Immunol. 95, 85 (2000). For cell proliferation assays, cells were washed in 10% FCS medium twice, resuspended in 10% FCS medium, incubated at 37° C. for 16 hours, and then cultured at 37° C. in 10% FCS medium containing various amounts of cytokines, sodium stibogluconate, or potassium antimonyl tartrate for 3-6 days as indicated. The cell numbers in proliferation assays were determined by an MTT assay or by microscopic cell counting as indicated."}, "[1]": {"tested_on": "WM9 PRL-1R86 transfectant", "assay": "Growth of WM9 PRL-1R86 transfectant (MTT)", "type": "cell-based, human", "conditions": "50 or 100 μg/ml, 6 days", "method": "as §1\nThe effects of sodium stibogluconate on intracellular PTPases were assessed using NIH3T3 or WM9 transfectants. NIH3T3 or WM9 cells were transfected with the pBabepuro vector (V) or pBabepuro expression constructs of Flag-tagged PRLs using Lipofectamine (BRL) following the manufacturer's procedures. […]"}, "Tyk2/Stat3": {"tested_on": "Tyk2/Stat3", "assay": "GM-CSF-induced Tyk2/Stat3 tyrosine phosphorylation in SHP-1-deficient cells", "type": "cell-based"}, "U266 cells": {"tested_on": "U266 cells", "assay": "Cell proliferation assay (MTT), U266 multiple myeloma cells", "type": "cell-based, human", "conditions": "day 6", "method": "as §2"}, "AML-3 cells": {"tested_on": "AML-3 cells", "assay": "AML-3 cell differentiation", "type": "cell-based, human"}},
  "data": [
    {"smiles": "O.O.O.O.O.O.O.O.O.O=C([O-])[C@@H]1[O][Sb]2([O-])([O][Sb]34([OH])[O][C@H]([C@H](O)CO)[C@H]([O]3)[C@H](C(=O)[O-])[O]4)[O][C@H]([C@H](O)CO)[C@@H]1[O]2.[Na+].[Na+].[Na+]", "note": "[sodium stibogluconate]", "values": [
      {"measurement": "cell killing, HEY", "setting": "HEY cells", "result": "near-complete cell killing"},
      {"measurement": "growth inhibition of WiT49-N1 with added IFN-alpha", "setting": "WiT49-N1 cells", "result": "not enhanced by IFN-alpha"},
      {"measurement": "sensitivity of WiT49-N1 cells", "setting": "WiT49-N1 cells", "result": "sensitive"},
      {"measurement": "inhibition of MKP1", "setting": "MKP1", "result": "no obvious effects"},
      {"measurement": "inhibitory activity against MKP1", "setting": "MKP1", "result": "no obvious inhibitory activity"},
      {"measurement": "cell killing, A549", "setting": "A549 cells", "result": "near-complete cell killing"},
      {"measurement": "IL-3-induced Baf3 growth at high concentration", "setting": "Baf3 cells; 1,000 μg/ml", "result": "suppressed IL-3-induced Baf3 growth"},
      {"measurement": "Baf3 proliferation/viability in the absence of IL-3", "setting": "Baf3 cells; day 3 culture", "result": "failed to support cell proliferation or maintain cell viability"},
      {"measurement": "growth inhibition of R86 cells at higher doses", "setting": "[1]", "result": "only modest growth inhibition"},
      {"measurement": "GM-CSF-induced Tyk2/Stat3 tyrosine phosphorylation", "setting": "Tyk2/Stat3", "result": "augmented"},
      {"measurement": "IFN-alpha-induced growth inhibition of U266 cells in presence of drug", "setting": "U266 cells", "result": "augmentation of IFN-alpha-induced cell growth inhibition"},
      {"measurement": "growth inhibition of U266 cells by the drug by itself", "setting": "U266 cells", "result": "substantial growth inhibition activity"},
      {"measurement": "differentiation of AML-3 cells", "setting": "AML-3 cells", "result": "inducing differentiation"}
    ]}
  ]
}
